SMILES strings stand for the structures. Bounds are passed on as bounds.

The values that follow come from US20240101570A1 (AMGEN INC., priority 2020, published 2024).

One assay relates to HCT116 MTAP null cells. Put plainly: HCT116 MTAP null cell proliferation / viability (CellTiter-Glo, 6 days). The class given is cell-based. To be noted: HCT116-MTAP null, 144 h, HCT116 MTAP null cells, 6 days, CellTiter-Glo; read-out: HCT-116 MTAP null IC50. In short, it runs like this: (§1)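 IC50 values derive from sigmoidal dose-response fits, some with Hill slope fixed at −1 and top constrained to 100%, others from 4-parameter logistic models. They reflect CellTiter-Glo viability after 6 days of compound exposure at up to 10 or 50 μM.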
A general note: Cellular ATP, detected with luciferase, serves as a proxy for viable cell number.

The next assay relates to HCT116 WT cells. Nature of the assay: HCT116 WT cell proliferation / viability (CellTiter-Glo, 6 days). The class given is cell-based. The following applies: Homo sapiens, HCT-116, 144 h, HCT116 WT cells, 6 days, CellTiter-Glo; read-out: HCT-116 WT IC50. In short, it runs like this:
as §1

In general, IC50 refers to the midpoint of a concentration-inhibition curve. For the compound `C[C@@H](c1ccc(C(F)(F)C(F)(F)F)cc1)N(C)C(=O)c1cc2c(cc1F)nc(N)c1cnn(C)c12` [Example 787, 4-amino-7-fluoro-N,1-dimethyl-N-((1S)-1-(4-(pentafluoroethyl)phenyl)ethyl)-1H-pyrazolo[4,3-c]quinoline-8-carboxamide], the IC50 is 865 nM in the assay with HCT116 MTAP null cells and 8970 nM with HCT116 WT cells.
The like results for `CC(C)N(C(=O)c1ccc2nc(N)c3c(c2c1)COC3)[C@H](C)c1ccc(C(F)(F)F)cn1` (single isomer, unassigned) [Example 832] were, in that order, 454 nM and 12600 nM.
The corresponding values for `CN(Cc1ccc(C2CC2)nn1)C(=O)c1cc2c(cc1F)nc(N)c1cnn(C)c12` [Example 518, 4-amino-N-((6-cyclopropyl-3-pyridazinyl)methyl)-7-fluoro-N,1-dimethyl-1H-pyrazolo[4,3-c]quinoline-8-carboxamide] are 106 nM and 6270 nM.
In the case of `CCN(C(=O)c1ccc2nc(N)c3c(c2c1)COC3)[C@H](C)c1ccc(C#N)cn1` (single isomer, unassigned) [Example 838], the IC50 with HCT116 MTAP null cells is 161 nM; in the assay with HCT116 WT cells, 8590 nM.
The corresponding values for `CN(Cc1ccc(C(F)(F)F)cn1)C(=O)c1cc2c3c(c(N)nc2cc1C(F)(F)F)COC3` [Example 572, 4-amino-N-methyl-7-(trifluoromethyl)-N-((5-(trifluoromethyl)-2-pyridinyl)methyl)-1,3-dihydrofuro[3,4-c]quinoline-8-carboxamide] are 939 nM and more than 50000 nM.
With `Cc1noc2c1c(N)nc1ccc(C(=O)N(Cc3ccc(C(F)(F)F)cn3)CC(C)C)cc12` [Example 617, 4-amino-3-methyl-N-(2-methylpropyl)-N-((5-(trifluoromethyl)-2-pyridinyl)methyl)[1,2]oxazolo[4,5-c]quinoline-8-carboxamide], the figures for the IC50 with HCT116 MTAP null cells and in the assay on HCT116 WT cells were 245 nM and more than 10000 nM, respectively.
The corresponding values for `CC(C)N(Cc1ccc(C#N)cn1)C(=O)c1ccc2nc(N)c3c(c2c1)CO[C@@H]3C` [Example 354, (3R)-4-amino-N-((5-cyano-2-pyridinyl)methyl)-3-methyl-N-(2-propanyl)-1,3-dihydrofuro[3,4-c]quinoline-8-carboxamide] are 623 nM and 21400 nM.
With `CC(c1ncccn1)N(Cc1ccc(C#N)cn1)C(=O)c1ccc2nc(N)c3c(c2c1)COC3` (racemic) [Example 616, 4-amino-N-((5-cyano-2-pyridinyl)methyl)-N-((1R)-1-(2-pyrimidinyl)ethyl)-1,3-dihydrofuro[3,4-c]quinoline-8-carboxamide and 4-amino-N-((5-cyano-2-pyridinyl)methyl)-N-((1S)-1-(2-pyrimidinyl)ethyl)-1,3-dihydrofuro[3,4-c]quinoline-8-carboxamide], the results for the IC50 in the assay with HCT116 MTAP null cells and in the assay with HCT116 WT cells were 18 nM and 419 nM, respectively.
The like results for `C[C@H](c1ccc(C(F)(F)F)nn1)N(C(=O)c1cc2c3c(c(N)nc2cc1Cl)COC3)C1CCC1` [Example 744, 4-amino-7-chloro-N-cyclobutyl-N-((1R)-1-(6-(trifluoromethyl)-3-pyridazinyl)ethyl)-1,3-dihydrofuro[3,4-c]quinoline-8-carboxamide] were, in that order, 38 nM and 967 nM.
The like results for `C[C@@H]1OCc2c1c(N)nc1cnc(C(=O)N(Cc3ccc(C(F)(F)F)cn3)c3cnn(C)c3)cc21` (single isomer, unassigned) [Example 827] were, in that order, 1250 nM and 47200 nM.
The like results for `COCC(C)N(Cc1ccc(C(F)(F)F)nn1)C(=O)c1cc2c3c(c(N)nc2cc1Cl)COC3` (racemic) [Example 487, 4-amino-7-chloro-N-((2R)-1-methoxy-2-propanyl)-N-((6-(trifluoromethyl)-3-pyridazinyl)methyl)-1,3-dihydrofuro[3,4-c]quinoline-8-carboxamide and 4-amino-7-chloro-N-((2S)-1-methoxy-2-propanyl)-N-((6-(trifluoromethyl)-3-pyridazinyl)methyl)-1,3-dihydrofuro[3,4-c]quinoline-8-carboxamide] were, in that order, 88 nM and 1370 nM.
In the case of `COc1ccc(CN(C(=O)c2ccc3nc(N)c4c(c3c2)COC4)[C@H](C)c2ncccn2)nn1` [Example 446, 4-amino-N-((6-methoxy-3-pyridazinyl)methyl)-N-((1R)-1-(2-pyrimidinyl)ethyl)-1,3-dihydrofuro[3,4-c]quinoline-8-carboxamide], the IC50 worked out at 12 nM in the assay with HCT116 MTAP null cells and 237 nM in the assay on HCT116 WT cells.
The like results for `CCN(C(=O)c1cc2c3c(c(N)nc2cc1F)[C@H](C)OC3)[C@H](C)c1ccc(C(F)(F)F)nn1` [Example 785, (3S)-4-amino-N-ethyl-7-fluoro-3-methyl-N-((1R)-1-(6-(trifluoromethyl)-3-pyridazinyl)ethyl)-1,3-dihydrofuro[3,4-c]quinoline-8-carboxamide] were, in that order, 851 nM and 19800 nM.
The corresponding values for `CCN(Cc1ccc(C2CC2)cn1)C(=O)c1ccc2nc(N)c3c(c2c1)COC3` [Example 539, 4-amino-N-((5-cyclopropyl-2-pyridinyl)methyl)-N-ethyl-1,3-dihydrofuro[3,4-c]quinoline-8-carboxamide] are 106 nM and 2100 nM.
The corresponding values for `C[C@H](c1ncc(C(F)(F)F)cc1F)N(C)C(=O)c1cc2c(cc1F)nc(N)c1cnn(C)c12` (single isomer, unassigned) [Example 863] are 7 nM and 340 nM.
For `C[C@H]1OCc2c1c(N)nc1cnc(C(=O)N(Cc3ccc(C(F)(F)F)nn3)C3CCC3)cc21` (single isomer, unassigned) [Example 830], the figures for the IC50 in the assay on HCT116 MTAP null cells and in the assay with HCT116 WT cells were 80 nM and 2970 nM, respectively.
The like results for `CC(C)N(Cc1ccc(C#N)cn1)C(=O)c1cc2c3c(c(N)nc2cn1)COC3` [Example 346, 4-amino-N-((5-cyano-2-pyridinyl)methyl)-N-(2-propanyl)-1,3-dihydrofuro[3,4-c][1,7]naphthyridine-8-carboxamide] were, in that order, 1090 nM and 19400 nM.
The like results for `Nc1nc2cc(Cl)c(C(=O)N(Cc3ccc(C4CC4)cn3)C3CC3)cc2c2c1COC2` [Example 480, 4-amino-7-chloro-N-cyclopropyl-N-((5-cyclopropyl-2-pyridinyl)methyl)-1,3-dihydrofuro[3,4-c]quinoline-8-carboxamide] were, in that order, 272 nM and 1450 nM.
The corresponding values for `C[C@H](c1ncccn1)N(Cc1ccc(Br)nn1)C(=O)c1cc2c3c(c(N)nc2cn1)COC3` [Example 673, 4-amino-N-((6-bromo-3-pyridazinyl)methyl)-N-((1R)-1-(2-pyrimidinyl)ethyl)-1,3-dihydrofuro[3,4-c][1,7]naphthyridine-8-carboxamide] are 110 nM and 3260 nM.
Take `C[C@H](c1ncccn1)N(Cc1ccc(C2CC2)nn1)C(=O)c1ccc2nc(N)c3c(c2c1)CO[C@@H]3C` [Example 329, (3R)-4-amino-N-((6-cyclopropyl-3-pyridazinyl)methyl)-3-methyl-N-((1R)-1-(2-pyrimidinyl)ethyl)-1,3-dihydrofuro[3,4-c]quinoline-8-carboxamide]: the figures for the IC50 in the assay on HCT116 MTAP null cells and in the assay with HCT116 WT cells were 22 nM and 160 nM, respectively.
The corresponding values for `C[C@H](c1ncccn1)N(Cc1ccc(C(F)(F)F)cn1)C(=O)c1cc2c3c(c(N)nc2cn1)COC3` [Example 621, 4-amino-N-((1R)-1-(2-pyrimidinyl)ethyl)-N-((5-(trifluoromethyl)-2-pyridinyl)methyl)-1,3-dihydrofuro[3,4-c][1,7]naphthyridine-8-carboxamide] are 108 nM and 1230 nM.
The like results for `CCN(Cc1ccc(Cl)cn1)C(=O)c1cc2c3c(c(N)nc2cn1)COC3` [Example 698, 4-amino-N-((5-chloro-2-pyridinyl)methyl)-N-ethyl-1,3-dihydrofuro[3,4-c][1,7]naphthyridine-8-carboxamide] were, in that order, 206 nM and 4500 nM.
The like results for `CCN(Cc1ccc(C(F)(F)F)cn1)C(=O)c1ccc2nc(N)c3c(c2c1)COC3` [Example 362, 4-amino-N-ethyl-N-((5-(trifluoromethyl)-2-pyridinyl)methyl)-1,3-dihydrofuro[3,4-c]quinoline-8-carboxamide] were, in that order, 76 nM and 2210 nM.
Take `C[C@H](c1ccc(F)cn1)N(C)C(=O)c1cc2c(cc1Cl)nc(N)c1cnn(C)c12` [Example 593, 4-amino-7-chloro-N-((1R)-1-(5-fluoro-2-pyridinyl)ethyl)-N,1-dimethyl-1H-pyrazolo[4,3-c]quinoline-8-carboxamide]: the IC50 in the assay with HCT116 MTAP null cells stood at 12 nM; in the assay with HCT116 WT cells, 908 nM.
The corresponding values for `COc1nc(C(F)(F)F)ccc1CN(C)C(=O)c1cc2c(cc1F)nc(N)c1cnn(C)c12` [Example 806, 4-amino-7-fluoro-N-((2-methoxy-6-(trifluoromethyl)-3-pyridinyl)methyl)-N,1-dimethyl-1H-pyrazolo[4,3-c]quinoline-8-carboxamide] are 56 nM and 3160 nM.
The like results for `C[C@H]1OCc2c1c(N)nc1cnc(C(=O)N(Cc3ccc(C(F)(F)F)cn3)CC3CC3)cc21` [Example 396, (3R)-4-amino-N-(cyclopropylmethyl)-3-methyl-N-((5-(trifluoromethyl)-2-pyridinyl)methyl)-1,3-dihydrofuro[3,4-c][1,7]naphthyridine-8-carboxamide] were, in that order, 20 nM and 629 nM.
The corresponding values for `C[C@@H]1OCc2c1c(N)nc1cnc(C(=O)N(Cc3ccc(C(F)(F)F)cn3)C3CC3)cc21` [Example 318, (3S)-4-amino-N-cyclopropyl-3-methyl-N-((5-(trifluoromethyl)-2-pyridinyl)methyl)-1,3-dihydrofuro[3,4-c][1,7]naphthyridine-8-carboxamide] are 4930 nM and 36300 nM.
